Measurements from PMC7827406, “Structure–Activity Relationship (SAR) Study of Spautin-1 to Entail the Discovery of Novel NEK4 Inhibitors” (International Journal of Molecular Sciences, 2021).
Where two headings read alike, the source gives them in different places.

Legend:
Test in all cases: biochemical
Parameters in all cases: Eurofins KinaseProfiler full panel at Km ATP, residual kinase activity (%) relative to DMSO
FAK(h) = biological target: T1, FAK(h) (Homo sapiens, UniProt Q05397)
T1 construct: gene PTK2
In short: (§1)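 Compounds screened at 10 µM in radiometric kinase activity assays at Km ATP, reported as remaining kinase activity (%). A KINOMEscan competition-binding screen at 10 µM measured DNA-tagged kinase retained on immobilized active-site ligand by qPCR.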

EphB2(h) = biological target: T2, EphB2(h) (Homo sapiens, UniProt P29323)
T2 sequence (P29323 1-1055): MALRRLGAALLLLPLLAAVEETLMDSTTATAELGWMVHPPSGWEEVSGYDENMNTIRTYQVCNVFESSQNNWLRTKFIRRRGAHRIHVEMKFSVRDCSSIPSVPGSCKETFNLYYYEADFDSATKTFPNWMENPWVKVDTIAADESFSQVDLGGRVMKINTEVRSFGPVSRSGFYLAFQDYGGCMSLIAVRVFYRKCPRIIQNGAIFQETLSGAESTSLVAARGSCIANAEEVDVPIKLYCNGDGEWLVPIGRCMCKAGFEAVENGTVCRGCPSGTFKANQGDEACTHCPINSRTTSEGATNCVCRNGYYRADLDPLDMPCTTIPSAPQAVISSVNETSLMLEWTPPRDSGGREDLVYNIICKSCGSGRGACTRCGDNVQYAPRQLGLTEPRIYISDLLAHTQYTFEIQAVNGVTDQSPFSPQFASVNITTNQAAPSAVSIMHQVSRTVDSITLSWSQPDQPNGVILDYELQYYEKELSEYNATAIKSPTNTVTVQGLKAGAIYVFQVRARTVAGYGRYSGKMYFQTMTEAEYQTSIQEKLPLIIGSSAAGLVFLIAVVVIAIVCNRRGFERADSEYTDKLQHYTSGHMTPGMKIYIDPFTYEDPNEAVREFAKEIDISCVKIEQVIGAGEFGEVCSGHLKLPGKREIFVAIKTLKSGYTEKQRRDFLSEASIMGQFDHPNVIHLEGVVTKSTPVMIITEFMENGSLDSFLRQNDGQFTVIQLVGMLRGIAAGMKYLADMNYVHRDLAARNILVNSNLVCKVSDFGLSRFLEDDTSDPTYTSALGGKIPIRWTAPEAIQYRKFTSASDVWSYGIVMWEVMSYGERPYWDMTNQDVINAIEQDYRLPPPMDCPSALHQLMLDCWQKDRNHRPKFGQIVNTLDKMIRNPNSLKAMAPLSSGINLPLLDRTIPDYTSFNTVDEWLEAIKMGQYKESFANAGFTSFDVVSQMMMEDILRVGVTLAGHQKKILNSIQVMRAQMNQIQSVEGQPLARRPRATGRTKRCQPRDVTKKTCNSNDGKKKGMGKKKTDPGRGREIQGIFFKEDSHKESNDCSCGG
In short: as §1

Tie2(R849W)(h) = biological target: T3, Tie2(R849W)(h) (Homo sapiens, UniProt Q02763, R849W)
T3 construct: gene TEK
In short: as §1

GRK5(h) = GRK5(h) (Homo sapiens, UniProt P34947)
In short: as §1

cSRC(h) = biological target: T4, cSRC(h) (Homo sapiens, UniProt P12931)
T4 construct: gene SRC
In short: as §1

EGFR(L858R)(h) = EGFR(L858R)(h) (Homo sapiens, UniProt P00533, L858R)
In short: as §1

ARK5(h) = biological target: T5, ARK5(h) (Homo sapiens, UniProt O60285)
T5 construct: gene NUAK1
T5 sequence (O60285 1-661): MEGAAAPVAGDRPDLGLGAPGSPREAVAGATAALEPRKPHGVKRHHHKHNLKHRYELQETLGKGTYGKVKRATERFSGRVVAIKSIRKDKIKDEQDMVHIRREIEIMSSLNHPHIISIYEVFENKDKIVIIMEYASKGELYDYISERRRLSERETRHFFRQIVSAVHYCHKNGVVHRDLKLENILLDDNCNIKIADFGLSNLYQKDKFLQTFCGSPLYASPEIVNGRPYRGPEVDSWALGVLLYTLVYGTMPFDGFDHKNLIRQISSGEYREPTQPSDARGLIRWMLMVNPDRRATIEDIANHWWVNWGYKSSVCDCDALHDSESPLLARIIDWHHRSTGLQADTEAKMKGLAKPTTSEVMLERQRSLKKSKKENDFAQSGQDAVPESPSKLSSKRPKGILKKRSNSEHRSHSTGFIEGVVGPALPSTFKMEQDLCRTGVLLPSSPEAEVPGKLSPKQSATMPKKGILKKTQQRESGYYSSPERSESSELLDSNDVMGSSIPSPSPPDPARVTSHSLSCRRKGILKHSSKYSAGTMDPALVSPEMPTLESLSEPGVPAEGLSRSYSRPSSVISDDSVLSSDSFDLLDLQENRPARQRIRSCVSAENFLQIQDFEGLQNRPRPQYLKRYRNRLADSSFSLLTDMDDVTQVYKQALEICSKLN
In short: as §1

CDK9/cyclin T1(h) = CDK9/cyclin T1(h) (Homo sapiens, UniProt P50750)
In short: as §1

[1] = read-out: Residual activity (%) Spautin-1 5aa
[2] = read-out: Residual activity (%) 5as
[3] = read-out: Residual activity (%) 5at
[4] = read-out: Residual activity (%) 5ay

Sequence of CDK9/cyclin T1(h) (P50750 whole entry): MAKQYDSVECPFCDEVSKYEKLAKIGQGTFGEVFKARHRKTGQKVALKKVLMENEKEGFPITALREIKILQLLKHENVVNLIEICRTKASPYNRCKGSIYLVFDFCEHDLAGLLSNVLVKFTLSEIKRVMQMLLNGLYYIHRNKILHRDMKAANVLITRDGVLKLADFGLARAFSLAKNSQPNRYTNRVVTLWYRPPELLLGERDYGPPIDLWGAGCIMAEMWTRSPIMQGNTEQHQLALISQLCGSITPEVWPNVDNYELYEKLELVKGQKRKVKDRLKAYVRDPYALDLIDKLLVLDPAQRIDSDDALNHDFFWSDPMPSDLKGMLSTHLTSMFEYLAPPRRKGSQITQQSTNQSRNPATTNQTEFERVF
Sequence of CDK9/cyclin T1(h) (O60563 whole entry partner): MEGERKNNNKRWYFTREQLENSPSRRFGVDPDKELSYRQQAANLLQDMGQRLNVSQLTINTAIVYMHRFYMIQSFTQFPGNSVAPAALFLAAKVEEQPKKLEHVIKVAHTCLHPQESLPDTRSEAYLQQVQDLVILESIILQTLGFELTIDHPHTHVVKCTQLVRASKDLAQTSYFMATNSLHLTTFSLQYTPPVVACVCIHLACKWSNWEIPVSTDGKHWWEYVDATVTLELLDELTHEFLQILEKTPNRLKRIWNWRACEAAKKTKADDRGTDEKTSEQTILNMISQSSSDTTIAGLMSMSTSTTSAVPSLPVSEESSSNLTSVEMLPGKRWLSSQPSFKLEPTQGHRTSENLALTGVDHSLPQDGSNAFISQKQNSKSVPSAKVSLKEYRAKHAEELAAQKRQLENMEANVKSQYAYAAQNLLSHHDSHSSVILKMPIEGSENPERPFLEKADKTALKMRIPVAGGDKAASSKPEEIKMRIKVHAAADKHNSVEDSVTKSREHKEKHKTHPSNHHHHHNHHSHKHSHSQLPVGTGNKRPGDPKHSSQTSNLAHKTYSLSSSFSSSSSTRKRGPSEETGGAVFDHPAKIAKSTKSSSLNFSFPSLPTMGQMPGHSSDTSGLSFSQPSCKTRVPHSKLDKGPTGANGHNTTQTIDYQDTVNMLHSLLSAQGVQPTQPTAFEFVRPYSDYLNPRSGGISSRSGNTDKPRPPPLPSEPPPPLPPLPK
Sequence of GRK5(h) (P34947 whole entry): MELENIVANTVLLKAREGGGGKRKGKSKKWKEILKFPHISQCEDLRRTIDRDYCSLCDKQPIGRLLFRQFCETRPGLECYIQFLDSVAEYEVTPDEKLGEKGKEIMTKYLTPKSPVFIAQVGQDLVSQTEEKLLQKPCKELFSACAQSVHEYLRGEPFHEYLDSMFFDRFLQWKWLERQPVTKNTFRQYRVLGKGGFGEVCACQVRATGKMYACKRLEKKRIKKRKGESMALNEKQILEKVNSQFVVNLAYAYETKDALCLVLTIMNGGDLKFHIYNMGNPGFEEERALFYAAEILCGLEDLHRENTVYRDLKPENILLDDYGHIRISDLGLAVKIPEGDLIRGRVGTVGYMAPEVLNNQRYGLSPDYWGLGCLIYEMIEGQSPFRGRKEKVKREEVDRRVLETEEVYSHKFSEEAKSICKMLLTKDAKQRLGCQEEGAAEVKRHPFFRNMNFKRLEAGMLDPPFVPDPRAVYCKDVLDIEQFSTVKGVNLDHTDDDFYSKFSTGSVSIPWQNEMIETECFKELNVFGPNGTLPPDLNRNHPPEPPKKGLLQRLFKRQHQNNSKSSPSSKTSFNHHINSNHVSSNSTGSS
T1 sequence (Q05397 whole entry): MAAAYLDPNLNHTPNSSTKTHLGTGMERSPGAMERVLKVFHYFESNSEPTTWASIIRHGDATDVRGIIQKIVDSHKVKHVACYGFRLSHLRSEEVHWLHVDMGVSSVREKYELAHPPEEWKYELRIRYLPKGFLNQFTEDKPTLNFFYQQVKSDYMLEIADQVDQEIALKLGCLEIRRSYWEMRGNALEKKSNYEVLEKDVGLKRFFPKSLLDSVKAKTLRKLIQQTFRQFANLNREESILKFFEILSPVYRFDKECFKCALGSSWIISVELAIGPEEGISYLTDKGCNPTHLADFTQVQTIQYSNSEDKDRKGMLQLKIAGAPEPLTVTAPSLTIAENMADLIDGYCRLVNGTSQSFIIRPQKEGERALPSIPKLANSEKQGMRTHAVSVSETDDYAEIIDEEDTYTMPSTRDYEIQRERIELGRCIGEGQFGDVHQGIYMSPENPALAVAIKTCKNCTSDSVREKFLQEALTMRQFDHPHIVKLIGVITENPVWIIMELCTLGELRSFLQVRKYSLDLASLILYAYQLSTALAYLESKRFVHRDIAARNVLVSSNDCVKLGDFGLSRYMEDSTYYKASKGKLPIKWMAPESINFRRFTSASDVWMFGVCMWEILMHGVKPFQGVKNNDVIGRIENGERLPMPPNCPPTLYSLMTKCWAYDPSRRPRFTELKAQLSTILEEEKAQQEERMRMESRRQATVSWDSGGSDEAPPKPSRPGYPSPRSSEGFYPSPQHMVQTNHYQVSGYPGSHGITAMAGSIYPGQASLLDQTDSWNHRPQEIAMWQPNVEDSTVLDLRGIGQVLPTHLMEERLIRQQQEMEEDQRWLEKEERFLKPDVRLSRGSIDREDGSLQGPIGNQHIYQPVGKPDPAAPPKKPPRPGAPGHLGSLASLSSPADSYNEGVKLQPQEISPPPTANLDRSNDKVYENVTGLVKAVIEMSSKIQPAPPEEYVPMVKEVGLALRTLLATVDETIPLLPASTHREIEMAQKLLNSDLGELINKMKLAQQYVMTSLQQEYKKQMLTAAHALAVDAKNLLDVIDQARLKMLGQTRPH
Sequence of EGFR(L858R)(h) (P00533 whole entry L858R): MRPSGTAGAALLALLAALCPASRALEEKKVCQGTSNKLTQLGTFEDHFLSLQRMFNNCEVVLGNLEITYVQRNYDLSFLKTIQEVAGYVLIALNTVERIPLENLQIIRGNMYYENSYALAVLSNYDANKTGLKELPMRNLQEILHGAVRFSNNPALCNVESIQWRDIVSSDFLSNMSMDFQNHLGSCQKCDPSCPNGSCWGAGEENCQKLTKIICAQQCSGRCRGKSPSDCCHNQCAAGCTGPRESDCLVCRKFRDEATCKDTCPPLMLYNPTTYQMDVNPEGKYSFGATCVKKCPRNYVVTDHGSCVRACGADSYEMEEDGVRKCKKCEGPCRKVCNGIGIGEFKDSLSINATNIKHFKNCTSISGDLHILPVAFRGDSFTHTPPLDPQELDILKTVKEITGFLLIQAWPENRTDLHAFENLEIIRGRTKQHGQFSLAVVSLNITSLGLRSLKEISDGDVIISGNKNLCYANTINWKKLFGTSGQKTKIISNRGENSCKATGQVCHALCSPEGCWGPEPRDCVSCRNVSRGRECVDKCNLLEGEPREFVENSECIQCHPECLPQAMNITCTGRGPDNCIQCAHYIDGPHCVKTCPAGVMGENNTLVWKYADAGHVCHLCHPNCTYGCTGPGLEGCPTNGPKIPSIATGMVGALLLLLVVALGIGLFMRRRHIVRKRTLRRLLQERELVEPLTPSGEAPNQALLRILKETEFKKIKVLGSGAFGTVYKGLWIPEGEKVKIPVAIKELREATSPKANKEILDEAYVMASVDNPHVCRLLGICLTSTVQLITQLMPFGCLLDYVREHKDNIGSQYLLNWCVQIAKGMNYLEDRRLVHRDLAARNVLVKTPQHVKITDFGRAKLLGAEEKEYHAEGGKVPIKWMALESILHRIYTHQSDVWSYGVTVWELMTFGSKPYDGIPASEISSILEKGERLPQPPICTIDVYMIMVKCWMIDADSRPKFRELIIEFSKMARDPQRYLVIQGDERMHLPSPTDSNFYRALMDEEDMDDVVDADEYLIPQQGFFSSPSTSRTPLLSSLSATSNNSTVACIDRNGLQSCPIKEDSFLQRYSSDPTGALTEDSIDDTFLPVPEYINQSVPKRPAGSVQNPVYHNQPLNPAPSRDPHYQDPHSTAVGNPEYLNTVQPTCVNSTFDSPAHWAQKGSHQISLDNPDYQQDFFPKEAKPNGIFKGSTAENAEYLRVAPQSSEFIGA
T3 sequence (Q02763 whole entry R849W): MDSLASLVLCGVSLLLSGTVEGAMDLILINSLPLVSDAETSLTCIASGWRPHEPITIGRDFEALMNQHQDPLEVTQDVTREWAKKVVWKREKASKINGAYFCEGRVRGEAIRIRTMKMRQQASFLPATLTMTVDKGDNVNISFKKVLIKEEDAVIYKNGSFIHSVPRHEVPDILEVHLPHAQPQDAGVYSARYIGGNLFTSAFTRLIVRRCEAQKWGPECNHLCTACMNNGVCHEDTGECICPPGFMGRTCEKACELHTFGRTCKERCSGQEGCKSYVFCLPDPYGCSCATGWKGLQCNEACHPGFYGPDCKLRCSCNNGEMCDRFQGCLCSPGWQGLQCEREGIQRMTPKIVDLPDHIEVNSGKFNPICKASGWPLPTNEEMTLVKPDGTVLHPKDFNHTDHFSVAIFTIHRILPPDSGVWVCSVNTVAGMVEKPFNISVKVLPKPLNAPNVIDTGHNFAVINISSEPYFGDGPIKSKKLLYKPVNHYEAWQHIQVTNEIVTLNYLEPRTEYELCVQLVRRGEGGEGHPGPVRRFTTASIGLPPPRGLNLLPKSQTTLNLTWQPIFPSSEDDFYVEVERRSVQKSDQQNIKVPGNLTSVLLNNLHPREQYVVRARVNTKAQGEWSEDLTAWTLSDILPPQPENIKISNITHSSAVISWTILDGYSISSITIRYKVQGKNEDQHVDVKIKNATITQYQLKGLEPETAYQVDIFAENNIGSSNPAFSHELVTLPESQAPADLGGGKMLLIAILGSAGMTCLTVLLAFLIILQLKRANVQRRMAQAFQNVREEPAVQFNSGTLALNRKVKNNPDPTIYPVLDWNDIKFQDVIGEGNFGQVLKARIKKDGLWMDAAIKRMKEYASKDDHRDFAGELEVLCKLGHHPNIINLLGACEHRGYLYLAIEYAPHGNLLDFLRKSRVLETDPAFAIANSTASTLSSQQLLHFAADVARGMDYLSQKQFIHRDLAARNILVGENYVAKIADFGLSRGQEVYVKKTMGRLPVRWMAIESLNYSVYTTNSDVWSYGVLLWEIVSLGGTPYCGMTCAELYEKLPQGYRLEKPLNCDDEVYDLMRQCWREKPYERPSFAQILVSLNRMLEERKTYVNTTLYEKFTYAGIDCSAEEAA

**Q.** With `Fc1ccc(CNc2ncnc3ccc(F)cc23)cc1` [5aa, 6-Fluoro-N-(4-fluorobenzyl)-4-Quinazolinamine] as the molecule, how does the remaining activity at 10 µM (FAK(h); [1]) read?
**A.** The remaining activity at 10 µM was 84%.

**Q.** And the remaining activity at 10 µM (EphB2(h); [1])?
**A.** The remaining activity at 10 µM was 96%.

**Q.** And the remaining activity at 10 µM (Tie2(R849W)(h); [1])?
**A.** Its remaining activity at 10 µM is 91%.

**Q.** And the remaining activity at 10 µM (GRK5(h); [1])?
**A.** The remaining activity at 10 µM was 86%.

**Q.** What about the remaining activity at 10 µM (cSRC(h); [1]) of the same molecule?
**A.** The remaining activity at 10 µM was 133%.

**Q.** And the remaining activity at 10 µM (EGFR(L858R)(h); [1])?
**A.** The remaining activity at 10 µM was 23%.

**Q.** And the remaining activity at 10 µM (ARK5(h); [1])?
**A.** The remaining activity at 10 µM was 99%.

**Q.** And the remaining activity at 10 µM (CDK9/cyclin T1(h); [1])?
**A.** The remaining activity at 10 µM was 104%.

**Q.** For `Fc1ccc(CCNc2ncnc3ccc(F)cc23)cc1` [5as, 6-Fluoro-N-[2-(4-Fluorophenyl)Ethyl]-4-Quinazolinamine], which remaining activity at 10 µM (FAK(h); [2]) is on record?
**A.** The remaining activity at 10 µM was 88%.

**Q.** And the remaining activity at 10 µM (EphB2(h); [2])?
**A.** Its remaining activity at 10 µM is 82%.

**Q.** And the remaining activity at 10 µM (Tie2(R849W)(h); [2])?
**A.** The remaining activity at 10 µM was 98%.

**Q.** What about the remaining activity at 10 µM (GRK5(h); [2]) of the same molecule?
**A.** The remaining activity at 10 µM was 95%.

**Q.** What about the remaining activity at 10 µM (cSRC(h); [2]) of the same molecule?
**A.** The remaining activity at 10 µM was 81%.

**Q.** What about the remaining activity at 10 µM (EGFR(L858R)(h); [2]) of the same molecule?
**A.** Its remaining activity at 10 µM is 37%.

**Q.** And the remaining activity at 10 µM (ARK5(h); [2])?
**A.** Its remaining activity at 10 µM is 101%.

**Q.** And the remaining activity at 10 µM (CDK9/cyclin T1(h); [2])?
**A.** Its remaining activity at 10 µM is 93%.

**Q.** What does the source list for `Fc1ccc2ncnc(NCCc3ccc(Cl)cc3)c2c1` [5at, N-[2-(4-Chlorophenyl)Ethyl]-6-Fluoro-4-Quinazolinamine]?
**A.** remaining activity at 10 µM (FAK(h); [3]): 83%; remaining activity at 10 µM (EphB2(h); [3]): 93%; remaining activity at 10 µM (Tie2(R849W)(h); [3]): 90%; remaining activity at 10 µM (GRK5(h); [3]): 96%; remaining activity at 10 µM (cSRC(h); [3]): 120%; remaining activity at 10 µM (EGFR(L858R)(h); [3]): 60%; remaining activity at 10 µM (ARK5(h); [3]): 105%; remaining activity at 10 µM (CDK9/cyclin T1(h); [3]): 86%

**Q.** What does the source list for `COc1ccc2ncnc(Nc3cccc(F)c3)c2c1` [5ay, N-(3-Fluorophenyl)-6-Methoxy-4-Quinazolinamine]?
**A.** remaining activity at 10 µM (FAK(h); [4]): 84%; remaining activity at 10 µM (EphB2(h); [4]): 97%; remaining activity at 10 µM (Tie2(R849W)(h); [4]): 110%; remaining activity at 10 µM (GRK5(h); [4]): 89%; remaining activity at 10 µM (cSRC(h); [4]): 106%; remaining activity at 10 µM (EGFR(L858R)(h); [4]): 3%; remaining activity at 10 µM (ARK5(h); [4]): 93%; remaining activity at 10 µM (CDK9/cyclin T1(h); [4]): 100%
